ChEMBL document CHEMBL1140507, “Synthesis and evaluation of N-acylsulfonamide and N-acylsulfonylurea prodrugs of a prostacyclin receptor agonist” (Bioorg Med Chem, 2007)

Experiments:
[1] = Hydrolytic rate in Beagle dog hepatic microsomes assessed as 2-(4-((5,6-diphenylpyrazin-2-yl)(isopropyl)amino)butoxy)acetic acid production per mg of protein at 10 uM; assay type: ADME, Canis lupus familiaris, Liver
Cynomolgus monkey [2] = assay: Half life in cynomolgus monkey assessed as 2-(4-((5,6-diphenylpyrazin-2-yl)(isopropyl)amino)butoxy)acetic acid at 1 mg/kg, po; assay type: ADME, organism-based, Macaca fascicularis; set-up: dose 1 mg/kg, route oral; details: in vivo
Liver microsomes [3] = assay: Hydrolytic rate in human hepatic microsomes assessed as 2-(4-((5,6-diphenylpyrazin-2-yl)(isopropyl)amino)butoxy)acetic acid production per mg of protein at 10 uM; assay type: ADME, Microsome
Cynomolgus monkey [4] = assay: AUC (0 to 24 hrs) in cynomolgus monkey assessed as 2-(4-((5,6-diphenylpyrazin-2-yl)(isopropyl)amino)butoxy)acetic acid at 1 mg/kg, po; assay type: ADME, organism-based, Macaca fascicularis, Plasma; set-up: time < 24 hr, dose 1 mg/kg, route oral; details: in vivo
[5] = Hydrolytic rate in cynomolgus monkey hepatic microsomes assessed as 2-(4-((5,6-diphenylpyrazin-2-yl)(isopropyl)amino)butoxy)acetic acid production in presence of 10 uM PMSF relative to control; assay type: ADME, Macaca fascicularis, Liver; set-up: scale not given: the % may be the effect or the level left
[6] = Hydrolytic rate in cynomolgus monkey hepatic microsomes assessed as 2-(4-((5,6-diphenylpyrazin-2-yl)(isopropyl)amino)butoxy)acetic acid production in presence of 1000 uM PMSF relative to control; assay type: ADME, Macaca fascicularis, Liver; set-up: scale not given: the % may be the effect or the level left
Plasma = assay: Hydrolytic rate in Sprague-Dawley rat plasma assessed as 2-(4-((5,6-diphenylpyrazin-2-yl)(isopropyl)amino)butoxy)acetic acid production per mg of protein at 10 uM; assay type: ADME, cell-free
Cynomolgus monkey [7] = assay: Cmax in cynomolgus monkey assessed as 2-(4-((5,6-diphenylpyrazin-2-yl)(isopropyl)amino)butoxy)acetic acid level at 1 mg/kg, po; assay type: ADME, organism-based, Macaca fascicularis; set-up: dose 1 mg/kg, route oral; details: in vivo
Cynomolgus monkey [8] = assay: Tmax in cynomolgus monkey assessed as 2-(4-((5,6-diphenylpyrazin-2-yl)(isopropyl)amino)butoxy)acetic acid level at 1 mg/kg, po; assay type: ADME, organism-based, Macaca fascicularis; set-up: dose 1 mg/kg, route oral; details: in vivo
[9] = Hydrolytic rate in cynomolgus monkey hepatic microsomes assessed as 2-(4-((5,6-diphenylpyrazin-2-yl)(isopropyl)amino)butoxy)acetic acid production in presence of 100 uM PMSF relative to control; assay type: ADME, Macaca fascicularis, Liver; set-up: scale not given: the % may be the effect or the level left
Liver microsomes [10] = assay: Hydrolytic rate in Sprague-Dawley rat hepatic microsomes assessed as 2-(4-((5,6-diphenylpyrazin-2-yl)(isopropyl)amino)butoxy)acetic acid production per mg of protein at 10 uM; assay type: ADME, Microsome
[11] = Hydrolytic rate in cynomolgus monkey hepatic microsomes assessed as 2-(4-((5,6-diphenylpyrazin-2-yl)(isopropyl)amino)butoxy)acetic acid production per mg of protein at 10 uM; assay type: ADME, Macaca fascicularis, Liver

| Structure (SMILES) | Activity [1] | t1/2 (Cynomolgus monkey [2]) | Activity (Liver microsomes [3]) | AUC (Cynomolgus monkey [4]) | Activity [5] | Activity [6] | Activity (Plasma) | Cmax (Cynomolgus monkey [7]) | Tmax (Cynomolgus monkey [8]) | Activity [9] | Activity (Liver microsomes [10]) | Activity [11] |
| --- | --- | --- | --- | --- | --- | --- | --- | --- | --- | --- | --- | --- |
| CC(C)N(CCCCOCC(=O)NS(C)(=O)=O)c1cnc(-c2ccccc2)c(-c2ccccc2)n1 [SELEXIPAG] | 0.03 nmol/min | 10.7 h | 0.019 nmol/min | 859 ng·h/mL | 21.4% | 0% | 0.5 nmol/min | 35 ng/mL | 14 h | 0% | 0.09 nmol/min | 0.057 nmol/min |
| CC(C)N(CCCCOCC(=O)NS(=O)(=O)c1ccccc1)c1cnc(-c2ccccc2)c(-c2ccccc2)n1 |  |  | 0.017 nmol/min |  |  |  |  |  |  |  |  | 0.711 nmol/min |
| CC(C)N(CCCCOCC(=O)NS(=O)(=O)N1CCOCC1)c1cnc(-c2ccccc2)c(-c2ccccc2)n1 |  |  | 0.015 nmol/min |  |  |  |  |  |  |  |  | 0.208 nmol/min |
| CC(C)N(CCCCOCC(=O)NS(N)(=O)=O)c1cnc(-c2ccccc2)c(-c2ccccc2)n1 |  |  | 0.03 nmol/min | 374 ng·h/mL |  |  |  | 20 ng/mL | 6 h |  |  | 0.112 nmol/min |
| CC(C)N(CCCCOCC(=O)NS(=O)(=O)C(C)C)c1cnc(-c2ccccc2)c(-c2ccccc2)n1 |  | 14.5 h | 0.012 nmol/min | 170 ng·h/mL |  |  |  | 13 ng/mL | 10 h |  |  | 0.152 nmol/min |
| CC(C)N(CCCCOCC(=O)NS(=O)(=O)C(F)(F)F)c1cnc(-c2ccccc2)c(-c2ccccc2)n1 |  | 8.5 h | 0.024 nmol/min | 308 ng·h/mL |  |  |  | 31 ng/mL | 4 h |  |  | 0.06 nmol/min |
| CC(C)N(CCCCOCC(=O)NS(=O)(=O)c1cccs1)c1cnc(-c2ccccc2)c(-c2ccccc2)n1 |  |  | 0.008 nmol/min |  |  |  |  |  |  |  |  | 0.468 nmol/min |
